O=C1CCC(=O)O1
solubility (mole fraction)
Details	283.15 K	288.15 K	293.15 K	298.15 K	303.15 K	308.15 K	313.15 K	318.15 K	323.15 K
in THF	0.071	0.077	0.085	0.093	0.104	0.115	0.129	0.145	0.164
in gamma-butyrolactone	0.197	0.218	0.239	0.261	0.283	0.307	0.331	0.354	0.378

Reference: BigSolDB 2.1
